Values joined by “and” are separate entries in the source; they are usually repeats but may differ in a detail not shown here. Equal entries are not always repeated.
Experiments:
[1] = Miscibility of alkyl ketal esters with water and organic compounds; assay type: physicochemical; conditions: for dissolves or is miscible with organic compounds to the extent of: organic compounds as listed in the block (alcohols, esters, oils, solvents), 80 parts of the ketal
Protocol: Unless stated otherwise, miscibility is assessed at 25° C.

[2] = Solubility of active agents in neat alkyl ketal esters (dissolution, storage at room temperature); conditions: for % solids in Et-LGK that did not (completely) dissolve or precipitated at room temperature / % solids dissolved in Et-LGK at room temperature, no precipitation / % solids dissolved in Et-LGK with heat, no precipitation: solvent Et-LGK; for % solids in Et-LGK that did not (completely) dissolve or precipitated at room temperature / % solids in Et-LPK that did not (completely) dissolve or precipitated at room temperature: insoluble; for % solids in Et-LGK that did not (completely) dissolve or precipitated at room temperature: partially dissolved or precipitated on room temperature storage; for % solids dissolved in Et-LGK at room temperature, no precipitation / % solids dissolved in Et-LGK with heat, no precipitation: still soluble after storage at room temperature (24 hours to 5 days) where stated; for % solids in Et-LPK that did not (completely) dissolve or precipitated at room temperature: not completely dissolved or precipitated on room temperature storage; for % solids dissolved in Et-LPK at room temperature, no precipitation: still soluble after 24 hours / 1 day at room temperature where stated; for % solids dissolved in Bu-LGK at room temperature, no precipitation: still soluble after 24 hours / 1 day at room temperature; for % solids dissolved in Et-LGK with heat, no precipitation: dissolved at 35-80° C.
[3] = Three-component miscibility test (mixing in a vial at room temperature and shaking, visual clarity); conditions: for Result (miscibility of ketal with water): 50.0% ketal / 50.0% water, no oxybenzone
Source text: The term “miscible” and its variations (“miscibility”, “compatibility”, and the like) are used herein as a synonym for “soluble”, i.e., a mixture of the materials by themselves form a “true” solution, in which one material is molecularly dispersed in the other, or in which one material is dispersed as droplets which have a longest dimension of less than 200 nm, such that the mixture is optically clear. […] A fully miscible alkyl ketal ester is soluble in another material, such as water, at all proportions from 99:1 to 1:99. A partially miscible alkyl ketal ester is immiscible in another material in proportions from greater than 30 parts of the alkyl ketal ester in 70 parts or less of the other material and miscible in other combinations. A sparingly miscible alkyl ketal ester is immiscible in another material or miscible in another material to the extent of less than 10 parts in 90 parts of the other material. […] Unless stated otherwise, miscibility is assessed at 25° C. […] By “macroscopically uniform,” it is meant that the formulation is uniform when viewed at a length scale of at least 10 micrometers.
In these tests, clear mixtures as observed without magnification from a distance of, e.g., 0.3 meters are considered to be “miscible,” whereas cloudy or phase separated mixtures are considered to be “immiscible.” […]
Three-component mixtures of ethyl-LGK, ethanol, and avobenzone were prepared by mixing the materials at various proportions at room temperature in a vial and shaking. […]
Three-component mixtures of ethyl-LGK, water, and oxybenzone were prepared by mixing the materials at various proportions at room temperature in a vial and shaking. […]
Three-component mixtures of Et-LGK, water, and phenoxyethanol were prepared by mixing the materials at various proportions at room temperature in a vial and shaking.
Three-component mixtures of N,N-diethyl-m-toluamide (DEET), ethyl-LGK, and water were prepared by mixing the materials at various proportions at room temperature in a vial and shaking.

## CCOC(=O)CCC1(C)OCC(C)O1 (centres unmarked) [ethyl-LPK]
[1]; 25° C. unless stated otherwise
  miscible in water to the extent of: 2.5 parts in 97.5 parts of water
[1]
  dissolves or is miscible with organic compounds to the extent of: at least 20 parts of the organic compound in 80 parts

## CCCCOC(=O)CCC1(C)OCC(CO)O1 (centres unmarked) [n-butyl-LGK]
[1]; 25° C. unless stated otherwise
  miscible with water to the extent of: 1 part per 99 parts water
[1]
  dissolves or is miscible with organic compounds to the extent of: at least 20 parts of the organic compound in 80 parts

## O=C(O)c1ccccc1O [salicylic acid, Salicylic acid]
[2]; solvent Bu-LGK, dissolved at 50-80° C., still soluble after 24 hours at room temperature where stated
  % solids dissolved in Bu-LGK with heat, no precipitation: 10%
[2]
  % solids in Et-LGK that did not (completely) dissolve or precipitated at room temperature: 20.8%
  % solids dissolved in Et-LGK at room temperature, no precipitation: 15%
[2]; solvent Et-LPK
  % solids in Et-LPK that did not (completely) dissolve or precipitated at room temperature: 14.3%
  % solids dissolved in Et-LPK at room temperature, no precipitation: 11%

## OCCOc1ccccc1 [phenoxyethanol, Phenoxyethanol]
[3]
  amount dissolved / solubilized by Et-LGK/water cosolvent mixtures: ~50 % by weight

## CCCOC(=O)CCC1(C)OCC(CO)O1 (centres unmarked) [n-propyl-LGK]
[1]; 25° C. unless stated otherwise
  miscible with water to the extent of: 1 part per 99 parts water

## COc1cc2c(cc1O)CCC(C)(C)O2 [Dimethylmethoxy Chromanol]
[2]; solvent Bu-LGK
  % solids dissolved in Bu-LGK at room temperature, no precipitation: 2.5%
[2]
  % solids dissolved in Et-LGK at room temperature, no precipitation: 2.5%
[2]; solvent Et-LPK
  % solids dissolved in Et-LPK at room temperature, no precipitation: 2.5%

## COC(=O)CC1(C)OCC(CO)O1 (centres unmarked) [Me-AcAcGK]
[1]; 25° C. unless stated otherwise
  miscible with water: in all proportions

## COC(=O)CCC1(C)OCC(CO)O1 (centres unmarked) [methyl-LGK]
[3]
  Result (miscibility of ketal with water): Miscible
[1]; 25° C. unless stated otherwise
  miscible with water: in all proportions

## O=C(OOC(=O)c1ccccc1)c1ccccc1 [Benzoyl peroxide]
[2]
  % solids dissolved in Et-LGK with heat, no precipitation: 5%
  % solids in Et-LGK that did not (completely) dissolve or precipitated at room temperature: 9.5%
[2]; such as ethyl-LGK and ethyl-LPK
  solubility in many alkyl ketal esters: lower solubilities

## O=C(CO)[C@H](O)CO [Erythrulose]
[2]; room temperature
  mixture with Bu-LGK at a ratio of 10/90: separated into distinct phases
  mixture with Et-LPK at a ratio of 10/90: separated into distinct phases
[2]; room temperature, still soluble after 24 hours
  mixture with Et-LGK at a ratio of 10/90: clear uniform solution

## CCCCC(CC)COC(=O)C=Cc1ccc(OC)cc1 (centres unmarked) [octyl methoxycinnamate, Ethylhexyl methoxy cinnamate]
[2]; room temperature
  50/50 mixture with Bu-LGK: soluble
[2]; room temperature where stated
  50/50 mixture with Et-LGK: soluble
  50/50 mixture with Et-LPK: soluble

## COc1ccc(C(=O)c2ccccc2)c(O)c1 [oxybenzone, Oxybenzone]
[2]; after 2 weeks at room temperature
  % solids dissolved in LEK with heat, no precipitation: 37.5%
[2]; room temperature
  % solids that did not dissolve in ACAc-GK: 31.9%
  % solids that did not dissolve in methyl-LGK: 14.9%
  % solids that did not dissolve in propyl-LGK: 17.8%
[2]; solvent Bu-LGK
  % solids dissolved in Bu-LGK at room temperature, no precipitation: 10%
[2]; solvent Et-LEK
  % solids dissolved in Et-LEK at room temperature: 28.5%
[2]
  % solids dissolved in Et-LGK with heat, no precipitation: 20%
  % solids in Et-LGK that did not (completely) dissolve or precipitated at room temperature: 25%
  % solids dissolved in Et-LGK at room temperature, no precipitation: 10% and 18%
[2]; solvent Et-LPK, dissolved at 50-80° C. or with heat, still soluble after storage at room temperature (24 hours to 5 days)
  % solids dissolved in Et-LPK with heat, no precipitation: 30%
[2]; solvent Et-LPK
  % solids in Et-LPK that did not (completely) dissolve or precipitated at room temperature: 40%
[3]
  maximum solubility in propyl-LGK: 10-18%
  upper limit of solubility in ethanol: 6.5-10%
[3]; Et-AcAc-GK as a cosolvent (with water)
  concentration achieved in a solution: ≤ 29%
[3]; Et-LEK as a cosolvent
  concentration achieved in an ethanolic solution: ≤ 30%
[3]; Methyl-LGK as a cosolvent (with water)
  concentration achieved in a solution: ≤ 10%
[3]; alkyl ketal solvent mixture (Et-LGK and Et-LPK 80/20) as a cosolvent (with water)
  concentration achieved in a solution: ≤ 20%
[3]; ethyl-LGK as a cosolvent
  concentration achieved in a water solution: ≤ 13%
  concentration achieved in an ethanolic solution: ≤ 17%
[3]; ethyl-LPK as a cosolvent
  concentration achieved in an ethanolic solution: ≤ 28%
[3]; no ketal
  level at which by itself immiscible in ethanol: 10 % by weight
  level at which by itself immiscible in water: 1 % by weight

## CCOC(=O)CC1(C)OCC(CO)O1 (centres unmarked) [Et-AcAcGK]
[3]
  Result (miscibility of ketal with water): Miscible
[1]; 25° C. unless stated otherwise
  miscible with water: in all proportions

## O=C(CCCCc1ccc2c(c1)OCO2)N1CCCCC1 [Tetrahydropiperine]
[2]; solvent Bu-LGK
  % solids dissolved in Bu-LGK at room temperature, no precipitation: 20%
[2]
  % solids dissolved in Et-LGK at room temperature, no precipitation: 20%
[2]; solvent Et-LPK
  % solids dissolved in Et-LPK at room temperature, no precipitation: 20%

— patent US9549886B2, “Personal care formulations containing alkyl ketal esters and methods of manufacture” (SEGETIS, INC., priority 2010, dated 2017)
